Measured values as given in patent US5147865A, “Phosphonopyrrolidine- and piperidine-containing pseudopeptides of the statin type, a process for their preparation and their use as medicaments against retroviruses” (Bayer Aktiengesellschaft, priority 1990, dated 1992).

Key:
[1] = test system: HIV-infected normal human blood lymphocytes (PBLs); assay: HIV test in infected human blood lymphocytes (PBLs), syncytia formation, method of Pauwels et al.; assay type: cell-based; details: concentration at which 50% (about 10 syncytia) of the virus-induced syncytia were suppressed, day 3 to 6 after infection
Protocol: The HIV test was carried out with slight modifications by the method of Pauwels et al. (Journal of Virological Methods 20 (1988) 309-321).
Normal human blood lymphocytes (PBLs) were concentrated by means of Ficoll-Hypaque and stimulated with phytohaemagglutinin (90 μg/ml) and interleukin 2 (40 U/ml) in RPMI 1640 and 20% foetal calf serum. For infection with the infectious HIV, PBLs were pelleted and the cell pellet was then suspended in 1 ml of HIV virus adsorption solution and incubated at 37° C. for 1 hour.
The virus adsorption solution was centrifuged and the infected cell pellet was taken up in growth medium such that a concentration of 1×10^5 cells per ml was established. The cells infected in this way were pipetted into the wells of 96-well microtitre plates at a concentration of 1×10^4 cells/well. […]
The test batches were incubated at 37° C. until, in the untreated virus control, the syncytia formation typical for HIV occurred (between day 3 and 6 after infection), which was then evaluated microscopically.
The IC-50 values were determined as the concentration of the treated and infected cells at which 50% (about 10 syncytia) of the virus-induced syncytia were suppressed by treatment with the compound according to the invention.

[2] = target: T1, HIV protease (Human immunodeficiency virus type 1 group M subtype B, UniProt P04585); assay: HIV-specific protease enzyme test (RP-HPLC analysis of synthetic peptide cleavage); assay type: biochemical; details: purified HIV protease, synthetic peptide imitating a Gag precursor cleavage site; concentration causing 50% inhibition of protease activity
T1 construct: purified HIV protease was incubated with synthetic peptide
Protocol: This is confirmed using an HIV-specific protease enzyme test.
The results for the examples listed below were determined by the HIV test system described in the following literature reports [cf. Hansen, J., Billich, S., Schulze, T., Sukrow, S. and Molling, K. (1988), EMBO Journal, Vol. 7, No. 6, pages 1785-1791]: purified HIV protease was incubated with synthetic peptide which imitated a cleavage site in the Gag precursor protein and represented an in vivo cleavage site of the HIV protease. The resulting cleavage products of the synthetic peptide were analysed by means of reverse phase high performance liquid chromatography (RP-HPLC). The IC50 values given relate to the substance concentration which causes a 50% inhibition of protease activity under the abovementioned test conditions.

Compound | IC50 [1] [µM] | IC50 [2] [µM]
CCOP(=O)(OCC)C1CCCN1C(=O)C[C@H](O)[C@H](CC1CCCCC1)NC(=O)[C@H](Cc1ccccc1)NC(=O)Nc1cccc2ccccc12 (single isomer, unassigned) [Example 16, Diethyl 1-{(3S,4S)-5-cyclohexyl-3-hydroxy-4-(1-napthylaminocarbonyl)phenylalaninyl]aminopentanoyl}-(2R or S)-2-(pyrrolidinyl)phosphonate] | 4.3 | –
CCOP(=O)(OCC)C1CCCN1C(=O)C[C@H](O)[C@H](CC1CCCCC1)NC(=O)[C@@H](NC(=O)[C@H](Cc1cccc2ccccc12)CS(=O)(=O)C(C)(C)C)C(C)C (stereo partly drawn) [Example 14, Diethyl 1-{(3S,4S)-4-[(2S)-3-(tert-butylsulphonyl)2-(1-naphthylmethyl)propanoyl]-valinylamino-5-cyclohexyl-3-hydroxypentanoyl}-(2RorS)-2-(pyrrolidinyl)phosphonate] | – | 0.5
CCOP(=O)(OCC)C1CCCN1C(=O)C[C@@H](O)[C@H](CC1CCCCC1)NC(=O)OC(C)(C)C (stereo partly drawn) [Example 28, Diethyl 1-{(3R,4S)-4-[(tert-butoxycarbonyl)amino]-5-cyclohexyl-3-hydroxypentanonyl]-(2R,S)-2-(pyrrolidinyl)phosphonate] | – | 10
